We go through five molecules from patent US20130210156A1, “Uniform, Functionalized, Cross-Linked Nanostructures for Monitoring pH” (priority 2010, published 2013).

Assay [1] is described as follows: Fluorescence emission of photonic SCKs and cross-linkers as a function of solution pH. The assay is classed as physicochemical. As to the method: The resulting micelle solution 2 was incubated with 6.25 mol % or 12.5 mol % of the diamino-terminated pyrazine, relative to the acrylic acid residues, with the addition of EDCI, to afford SCK 3 or 4 having different amounts of fluorophores incorporated into the shells and, therefore, different degrees of cross-linking. The reaction mixture solutions were dialyzed against nanopure water for […] to remove the urea by-products and any non-attached pyrazine fluorophores. The SCK dimensions were then measured by atomic force microscopy (AFM) and transmission electron microscopy (TEM). […] Dialysis of the SCK solutions against nanopure water (ca. pH 7) for 3 days and then partitioning into six vials, each containing 5 mL of 5 mM PBS at pH 4.5, 6.1, 8.0, 9.5, or 11.0, placed the SCKs into different pH environments for analysis of the effects on the SCK hydrodynamic diameters and on the fluorophore photophysical properties.
Covalent cross-linking between the pyrazine units and the PAA shells, thereby, affords photonic SCKs for potential pH sensing. Covalent cross-linking between pyrazine and PAA shells constitutes photonic SCKs for potential biomedical applications. We expected to observe the photophysical consequences of the deprotonated PAA shell from pH 4.5 to 9.5 and those of the PpHS core from pH 9.5 to 11. In order to test our hypothesis, UV-vis and fluorescence measurements were collected on the resulting SCK solutions over the pH range of 4.5 to 11.0 to determine the pyrazine concentration, and then normalize the concentration relative to the fluorescence intensity values (See, FIG. 8). […] To observe the photophysical properties of the photonic SCKs, the data for the pyrazines within the SCK shell layers were compared between the two SCKs having different degrees of pyrazine loading and also against the pyrazine cross-linker associated physically with PAA and as a small molecule in buffered solutions.
To a 50 mL RB flask equipped with a magnetic stir bar was added a solution of micelles in nanopure H2O (15.0 mL, 0.016 mmol of carboxylic acid residues). To this solution, was added a solution of 3,6-diamino-N^2,N^5-bis(2-aminoethyl)pyrazine-2,5-dicarboxamide (0.397 mg, 1.12 μmol (6.25 mol % relative to the acrylic acid residues) for 12.5% cross-linking extent; or 0.794 mg, 2.24 μmol (12.5 mol % relative to the acrylic acid residues) for 25% cross-linking extent) in 1 mL nanopure H2O. The reaction mixture was allowed to stir for 2 h at room temperature. To this solution was added, dropwise via a syringe pump over 1 h, a solution of 1-[3′-(dimethylamino)propyl]-3-ethylcarbodiimide methiodide (EDCI, 0.849 mg, 2.86 μmol for 12.5% cross-linking extent; or 1.70 mg, 5.72 μmol for 25% cross-linking extent) in nanopure H2O (1.0 mL) and the reaction mixture was further stirred for 16 h at room temperature. Finally, the reaction mixture was transferred to pre-soaked dialysis tubing (MWCO ca. 3,500 Da) and dialyzed against nanopure water for 3 d to remove the small molecule starting materials and by-products, and afford aqueous solutions of SCK 3 and 4. SCK solutions for DLS, UV-vis, and fluorescence studies were further partitioned into six vials each containing 5 mM PBS (with 5 mM NaCl) at pH values of 4.5, 6.1, 8.0, 9.5, and 11.
Preparation of shell cross-linked nanoparticles (SCK) from micelles: Micelle solution pH was adjusted between 5 and 6. An electronic pipette was used to add 6.25 mol % or 12.5 mol % of diamine-terminated cross-linker (from stock solution with concentration 2.392 mg/mL or 6.2957 mg/mL) to the micelle solution and let stir for 3 hrs. To this reaction mixture was added dropwise, via a metering pump, a solution of 1-[3-(dimethylamino)propyl]-3-ethylcarbodiimide methiodide dissolved in nanopure water (12.5 mol % or 25.0 mol %). […]

The nature of assay [2]: pH-responsive UV-Vis and fluorescence emission of MCNs, SCKs and small molecule cross-linkers. The assay is classed as physicochemical. As to conditions: small molecules in buffer at the surveyed pH values (5.8 to 8.6). As to the method: The UV-vis absorption spectra of MCNs were collected at room temperature using a Varian Cary 100 Bio UV-visible spectrophotometer and plastic cuvettes with 10 mm of light path. For each MCN absorption spectroscopy measurement, the corresponding buffer solution (5 mM with 5 mM of NaCl) outside the dialysis tubing was used as control.
The fluorescence spectra of MCNs were obtained at room temperature using a Varian Cary Eclipse fluorescence spectrophotometer. All fluorescence spectra from MCN solutions were measured at optical densities at the excitation wavelength. If not specially mentioned otherwise, an excitation wavelength of the observed maximum absorption peak was used. Each fluorescence spectrum was normalized with respect to the absorbed light intensity at the excitation wavelength.
To a solution of PEO45-b-PNAS105-b-PS45 MCMs (30.0 mg of block copolymer precursor, 127 μmol of NAS residues) in 60.0 mL of DMF/H2O (v:v=1:1) at room temperature, was added dropwise over 10 min, a solution of cross-linker 2 or 3 of FIG. 24 (12.7 μmol for nominal 20% of cross-linking and 31.8 μmol for nominal 50% of cross-linking, respectively) in nano-pure H2O. The reaction mixture was allowed to stir for 48 h at room temperature in the absence of light. […]

The conditions of assay [3]: excited between 488 nm and 530 nm; cited from earlier work.

Turning to `Cl.Cl.NCCNC(=O)c1nc(N)c(C(=O)NCCN)nc1N` [Photonic Cross-Linker Example 2, 3,6-diamino-N^2,N^5-bis(2-aminoethyl)pyrazine-2,5-dicarboxamide dihydrochloride], in assay [1] (as a function of increasing pH), the change in fluorescence result is “less than 10%”. The “Normalized percent increase in fluorescence” value is on record as 100% in assay [1] (solution pH 4.5); 100% in assay [1] (solution pH 6.1); 100% in assay [1] (solution pH 8.0); 110% in assay [1] (solution pH 9.5); 100% in assay [1] (solution pH 11.0).
For the molecule `Cl.Cl.NCCCOCCOCCOCCCNC(=O)c1nc(N)c(C(=O)NCCCOCCOCCOCCCN)nc1N` [Photonic Cross-Linker Example 3, 3,6-diamino-N^2,N^5-bis(3-(2-(2-(3-aminopropoxy)ethoxy)ethoxy)propyl)pyrazine-2,5-dicarboxamide dihydrochloride], in assay [1] (as a function of increasing pH), the decrease in fluorescence entry is listed as “ca. 30%”.
As to `Cl.Cl.NCCNC(=O)c1nc(N)c(C(=O)NCCN)nc1N` [cross-linker 2], the “UV-Vis absorbance and fluorescence emission spectra variation” value in assay [2] was “no apparent UV-Vis absorbance and fluorescence emission spectra variation”.
On the same count and under the same terms, for `Cl.Cl.NCCCOCCOCCOCCCNC(=O)c1nc(N)c(C(=O)NCCCOCCOCCOCCCN)nc1N` [cross-linker 3] the value was “no apparent UV-Vis absorbance and fluorescence emission spectra variation”.
On to “carboxyseminaphthofluorescein [cSNARF®-1]”, for which the I580/I640 ratio result in assay [3] is reported as “greater than thirty”.
